Biological target: T1, recombinant integrin α4β7 (Homo sapiens, UniProt P13612+P26010, DEL724-798)
T1 construct: purchased R&D Systems 5397-A3-050
T1 sequence (P13612 34-970 limits assumed): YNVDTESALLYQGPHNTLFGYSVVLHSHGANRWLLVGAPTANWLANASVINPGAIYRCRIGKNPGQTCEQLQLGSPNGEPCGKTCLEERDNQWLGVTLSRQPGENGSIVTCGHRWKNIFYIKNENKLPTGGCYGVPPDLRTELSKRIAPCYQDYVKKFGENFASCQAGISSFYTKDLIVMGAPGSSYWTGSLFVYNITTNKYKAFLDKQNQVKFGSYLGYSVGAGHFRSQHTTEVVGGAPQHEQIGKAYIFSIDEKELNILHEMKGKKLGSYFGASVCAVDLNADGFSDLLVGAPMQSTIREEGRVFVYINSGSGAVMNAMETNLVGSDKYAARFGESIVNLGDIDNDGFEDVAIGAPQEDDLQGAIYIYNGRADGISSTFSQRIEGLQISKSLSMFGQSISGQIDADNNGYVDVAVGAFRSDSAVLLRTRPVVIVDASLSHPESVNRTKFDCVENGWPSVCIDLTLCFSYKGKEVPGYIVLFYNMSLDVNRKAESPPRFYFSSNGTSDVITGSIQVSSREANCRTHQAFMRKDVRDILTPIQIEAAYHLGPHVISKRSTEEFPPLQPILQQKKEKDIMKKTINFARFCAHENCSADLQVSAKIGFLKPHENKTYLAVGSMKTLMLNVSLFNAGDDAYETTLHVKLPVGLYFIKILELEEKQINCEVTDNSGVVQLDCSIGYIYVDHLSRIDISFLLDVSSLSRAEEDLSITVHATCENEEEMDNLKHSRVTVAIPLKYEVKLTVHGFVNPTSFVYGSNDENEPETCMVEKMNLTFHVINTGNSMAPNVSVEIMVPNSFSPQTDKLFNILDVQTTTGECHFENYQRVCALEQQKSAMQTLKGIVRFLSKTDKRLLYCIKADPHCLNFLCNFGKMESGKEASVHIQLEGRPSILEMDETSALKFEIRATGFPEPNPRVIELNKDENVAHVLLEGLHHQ
T1 sequence (P26010 20-723 limits assumed): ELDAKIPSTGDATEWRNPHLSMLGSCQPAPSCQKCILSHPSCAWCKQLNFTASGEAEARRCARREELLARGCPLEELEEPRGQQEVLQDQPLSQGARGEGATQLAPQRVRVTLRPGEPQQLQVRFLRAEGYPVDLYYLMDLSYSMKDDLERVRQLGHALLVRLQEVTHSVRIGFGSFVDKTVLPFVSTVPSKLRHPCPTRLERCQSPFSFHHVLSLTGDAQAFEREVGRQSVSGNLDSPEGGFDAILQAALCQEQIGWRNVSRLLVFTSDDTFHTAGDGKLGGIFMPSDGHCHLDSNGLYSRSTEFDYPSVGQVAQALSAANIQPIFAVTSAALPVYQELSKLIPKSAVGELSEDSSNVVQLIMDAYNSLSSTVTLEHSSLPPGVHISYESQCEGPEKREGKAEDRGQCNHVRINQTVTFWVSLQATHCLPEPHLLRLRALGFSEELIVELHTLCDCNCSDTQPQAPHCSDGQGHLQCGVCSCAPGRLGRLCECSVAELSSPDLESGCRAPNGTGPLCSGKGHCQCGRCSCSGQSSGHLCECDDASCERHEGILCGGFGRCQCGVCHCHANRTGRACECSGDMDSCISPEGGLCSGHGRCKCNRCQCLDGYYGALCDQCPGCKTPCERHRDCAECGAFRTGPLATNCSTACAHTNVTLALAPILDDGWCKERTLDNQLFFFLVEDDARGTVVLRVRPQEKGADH
Test: Integrin α4β7—MAdCAM-1 ELISA competition assay
Type: binding
Details: for ELISA Assay Ratio b1/b7: ratio of a4b1 to a4b7 ELISA IC50; for IC50: read-out: ELISA a4b7 Assay IC50
Experimental: Integrin α4β7—MAdCAM-1 ELISA Competition Assay
The plate was incubated at 40C overnight. […] The plate was then incubated for 1 hour at room temperature. The plate was washed three times with wash buffer (50 mM Tris, 100 mM NaCl, 1 mM MnCl2, 0.05% Tween). To each well, 50 μl of compound diluted in assay buffer was added by transfer from a compound serial dilution plate. […] The plate was incubated at room temperature with shaking (300 rpm) for 2 hours to reach binding equilibrium. […] The plate was incubated at room temperature for 1 hour under agitation.

SMILES	ELISA Assay Ratio b1/b7	IC50 [nM]
CC(C)C[C@@H]1NC(=O)[C@H](Cc2ccc(O)cc2)NC(=O)[C@@H]2CCCN2C(C(=O)NC(C)(C)C)C(CSc2ccccc2)NC(=O)[C@H](C(C)C)NC(=O)[C@H](CC(=O)O)NC1=O (stereo partly shown) [Compound 1]	0.988	–
CC(C)C[C@@H]1NC(=O)[C@H](Cc2ccc(O)cc2)NC(=O)[C@@H]2CCCN2C(C(=O)NC(C)(C)C)C(CSc2ccccc2)NC(=O)[C@H]([C@@H](C)O)NC(=O)[C@H](CC(=O)O)NC1=O (stereo partly shown) [Compound 3]	2.474	–
CC[C@H](C)[C@@H]1NC(=O)[C@H](CC(=O)O)NC(=O)[C@H](CC(C)C)NC(=O)[C@H](Cc2c[nH]c3ccccc23)NC(=O)[C@@H]2CCCN2[C@H](C(=O)NC(C)(C)C)[C@H](C)NC1=O [Compound 8]	–	103
CC(C)C[C@@H]1NC(=O)[C@H](Cc2ccc(-c3ccccc3)cc2)NC(=O)[C@@H]2CCCN2[C@H](C(=O)NC(C)(C)C)[C@H](C)NC(=O)[C@H]([C@@H](C)OCc2ccccc2)NC(=O)[C@H](CC(=O)O)NC1=O [Compound 18]	–	120
CC[C@H](C)[C@@H]1NC(=O)[C@H](CC(=O)O)NC(=O)[C@H](CC(C)C)NC(=O)[C@H](Cc2ccc(O)cc2)NC(=O)[C@@H]2CCCN2[C@H](C(=O)NC(C)(C)C)[C@H](C)NC1=O [Compound 53]	–	182
CC(C)C[C@@H]1NC(=O)[C@H](Cc2ccncc2)NC(=O)[C@@H]2CCCN2[C@H](C(=O)NC(C)(C)C)[C@H](C)NC(=O)[C@H]([C@@H](C)O)NC(=O)[C@H](CC(=O)O)NC1=O [Compound 54]	–	190
CC(C)C[C@@H]1NC(=O)[C@@H](Cc2ccncc2)NC(=O)[C@@H]2CCCN2[C@H](C(=O)NC(C)(C)C)[C@H](C)NC(=O)[C@H]([C@@H](C)O)NC(=O)[C@H](CC(=O)O)NC1=O [Compound 62]	4.3	27
CC(C)C[C@@H]1NC(=O)[C@@H]2C[C@@H](O)CN2C(=O)[C@@H]2CCCN2[C@H](C(=O)NC(C)(C)C)[C@H](C)NC(=O)[C@H]([C@@H](C)O)NC(=O)[C@H](CC(=O)O)NC1=O [Compound 63]	–	107
CCC[C@@H]1NC(=O)[C@@H]2CCCN2[C@H](C(=O)NC(C)(C)C)[C@H](C)NC(=O)[C@H]([C@@H](C)O)NC(=O)[C@H](CC(=O)O)NC(=O)[C@H](CC(C)C)NC1=O [Compound 71]	4.4	184
CC(C)C[C@@H]1NC(=O)[C@H](Cc2csc(-c3cccnc3)n2)NC(=O)[C@@H]2CCCN2[C@H](C(=O)NC(C)(C)C)[C@H](C)NC(=O)[C@H]([C@@H](C)O)NC(=O)[C@H](CC(=O)O)NC1=O [Compound 96]	–	138
CC(C)C[C@@H]1NC(=O)[C@@H]2c3ccccc3CN2C(=O)[C@@H]2CCCN2[C@H](C(=O)NC(C)(C)C)[C@H](C)NC(=O)[C@H]([C@@H](C)O)NC(=O)[C@H](CC(=O)O)NC1=O [Compound 99]	–	57
CC(C)C[C@@H]1NC(=O)[C@H]2CCCN2C(=O)[C@H](Cc2cc(F)c(F)c(F)c2)NC(=O)[C@@H]2CCCN2[C@H](C(=O)NC(C)(C)C)[C@H](C)NC(=O)[C@H]([C@@H](C)O)NC(=O)[C@H](CC(=O)O)NC1=O [Compound 128]	11.4	26
CC(C)C[C@@H]1NC(=O)[C@H]2CCCCN2C(=O)[C@H](Cc2ccccc2-c2ccccc2)NC(=O)[C@@H]2CCCN2[C@H](C(=O)NC(C)(C)C)[C@H](C)NC(=O)[C@H]([C@@H](C)O)NC(=O)[C@H](CC(=O)O)NC1=O [Compound 134]	7.6	23
COc1ccc(-c2ccccc2C[C@@H]2NC(=O)[C@@H]3CCCN3[C@H](C(=O)NC(C)(C)C)[C@H](C)NC(=O)[C@H]([C@@H](C)O)NC(=O)[C@H](CC(=O)O)NC(=O)[C@H](CC(C)C)NC(=O)[C@H]3CCCCN3C2=O)cc1 [Compound 137]	7.8	33
CC(C)C[C@@H]1NC(=O)[C@H]2C[C@H](O)CN2C(=O)[C@H](Cc2ccc(O)cc2)NC(=O)[C@@H]2CCCN2[C@H](C(=O)NC(C)(C)C)[C@H](C)NC(=O)[C@H]([C@@H](C)O)NC(=O)[C@H](CC(=O)O)NC1=O [Compound 140]	9.6	53
CCCC[C@H]1NC(=O)[C@H](Cc2ccc(O)cc2)NC(=O)[C@@H]2CCCN2[C@H](C(=O)NC(C)(C)C)[C@H](C)NC(=O)[C@H]([C@@H](C)O)NC(=O)[C@H](CC(=O)O)NC(=O)[C@H](CC(C)C)NC1=O [Compound 155]	–	54
CC(C)C[C@@H]1NC(=O)CN(C)C(=O)[C@H](Cc2cscn2)NC(=O)[C@@H]2CCCN2[C@H](C(=O)NC(C)(C)C)[C@H](C)NC(=O)[C@H]([C@@H](C)O)NC(=O)[C@H](CC(=O)O)NC1=O [Compound 164]	–	127
CC(C)C[C@@H]1NC(=O)CNC(=O)[C@H](Cc2ccc(CN)cc2)NC(=O)[C@@H]2CCCN2[C@H](C(=O)NC(C)(C)C)[C@H](C)NC(=O)[C@H]([C@@H](C)O)NC(=O)[C@H](CC(=O)O)NC1=O [Compound 165]	22.8	128
C=CCOc1ccc(C[C@@H]2NC(=O)[C@@H]3CCCN3[C@H](C(=O)NC(C)(C)C)[C@H](C)NC(=O)[C@H]([C@@H](C)O)NC(=O)[C@H](CC(=O)O)NC(=O)[C@H](CC(C)C)NC(=O)[C@@H](CO)NC2=O)cc1 [Compound 167]	13.6	147
CC(C)C[C@@H]1NC(=O)CN(C)C(=O)[C@H](Cc2csc(-c3cccnc3)n2)NC(=O)[C@@H]2CCCN2[C@H](C(=O)NC(C)(C)C)[C@H](C)NC(=O)[C@H]([C@@H](C)O)NC(=O)[C@H](CC(=O)O)NC1=O [Compound 181]	12.6	–
CC(C)C[C@@H]1NC(=O)[C@H]2CCCCN2C(=O)[C@@H](Cc2cccc(-c3cccc4ncccc34)c2)NC(=O)[C@@H]2CCCN2[C@H](C(=O)NC(C)(C)C)[C@H](C)NC(=O)[C@H]([C@@H](C)O)NC(=O)[C@H](CC(=O)O)NC1=O [Compound 192]	–	118
CC(C)C[C@@H]1NC(=O)C[C@H](CCCCN)NC(=O)[C@H](Cc2ccc(O)cc2)NC(=O)[C@@H]2CCCN2[C@H](C(=O)NC(C)(C)C)[C@H](C)NC(=O)[C@H]([C@@H](C)OCc2ccccc2)NC(=O)[C@H](CC(=O)O)NC1=O [Compound 200]	2.6	134
CC(C)C[C@@H]1NC(=O)C[C@H](CCCCN)NC(=O)[C@H](Cc2ccc3ccccc3c2)NC(=O)[C@@H]2CCCN2[C@H](C(=O)NC(C)(C)C)[C@H](C)NC(=O)[C@H]([C@@H](C)O)NC(=O)[C@H](CC(=O)O)NC1=O [Compound 203]	–	55
CC(C)C[C@@H]1NC(=O)C[C@H](CCCCN)NC(=O)[C@H](Cc2ccc(-c3ccccc3)cc2)NC(=O)[C@@H]2CCCN2[C@H](C(=O)NC(C)(C)C)[C@H](C)NC(=O)[C@H]([C@@H](C)O)NC(=O)[C@H](CC(=O)O)NC1=O [Compound 204]	–	63
CC[C@H](C)[C@@H]1NC(=O)[C@H](CC(=O)O)NC(=O)[C@H](CC(C)C)NC(=O)C[C@H](CCCCN)NC(=O)[C@H](Cc2ccc(CN)cc2)NC(=O)[C@@H]2CCCN2[C@H](C(=O)NC(C)(C)C)[C@H](C)NC1=O [Compound 215]	12.4	33
CC[C@H](C)[C@@H]1NC(=O)[C@H](CC(=O)O)NC(=O)[C@H](CC(C)C)NC(=O)C[C@@H](CCCCN)NC(=O)[C@H](Cc2ccccc2)NC(=O)[C@@H]2CCCN2[C@H](C(=O)NC(C)(C)C)[C@H](C)NC1=O [Compound 220]	18.2	96

Reference: US11713338B2, “Cyclic peptides multimers targeting α-4-β-7 integrin” (priority 2016, dated 2023)
